In publication PMC5706701, “Development of a homogenous high-throughput assay for inositol hexakisphosphate kinase 1 activity” (PLoS ONE, 2017):
Structures can show the parent of a compound that is named as a salt. Where two headings read alike, the source gives them in different places.

Target: T1, Human IP6K1 (Homo sapiens, UniProt Q92551)
T1 construct: GST (N, cleaved yes); made in house; host or cells: C43 E. coli, pGEX-6P-2
Assay: IP6K1 high-throughput screen of the Sigma LOPAC (ADP-Glo Max, single point);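 note: final compound concentration 10µM in 5% DMSO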
Assay type: biochemical

[1] = LOPAC single-point screen, ADP-Glo Max raw signal per well
[2] = LOPAC single-point screen, Z-score from raw signal with plate average and StDev
[3] = LOPAC single-point screen, Z-score against plate average and StDev
[4] = Sigma LOPAC single-point screen, ADP-Glo Max raw signal per well
[5] = Sigma LOPAC single-point screen, Z-score from plate average and StDev
[6] = LOPAC single-point screen, ADP-Glo Max luminescence raw signal per well
[7] = LOPAC single-point screen, Z-score relative to plate average and StDev
[8] = LOPAC single-point screen, Z-score from plate average and StDev

T1 sequence (Q92551 whole entry): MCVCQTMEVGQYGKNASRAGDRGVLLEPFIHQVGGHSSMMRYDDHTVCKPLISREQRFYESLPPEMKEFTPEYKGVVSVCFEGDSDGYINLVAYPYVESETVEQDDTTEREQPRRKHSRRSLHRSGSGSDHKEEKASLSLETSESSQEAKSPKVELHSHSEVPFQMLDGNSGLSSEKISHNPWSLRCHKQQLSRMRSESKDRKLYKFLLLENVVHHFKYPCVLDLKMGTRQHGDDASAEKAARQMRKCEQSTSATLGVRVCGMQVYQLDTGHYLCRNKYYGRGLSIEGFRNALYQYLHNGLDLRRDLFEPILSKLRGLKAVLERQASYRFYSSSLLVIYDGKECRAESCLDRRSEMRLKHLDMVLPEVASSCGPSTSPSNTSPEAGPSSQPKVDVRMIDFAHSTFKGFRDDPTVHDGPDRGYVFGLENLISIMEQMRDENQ

Compound | Raw Signal [1] | Raw Signal [6] | Z-score [7] | further results
C[C@]12C[C@H](O)[C@H]3[C@@H](CCC4=CC(=O)CC[C@@]43C)[C@@H]1CC[C@@H]2C(=O)CO [Corticosterone] | 55741 |  |  | Z-score [2]: -0.3826
CC(=O)OCC(=O)[C@@]1(O)CC[C@H]2[C@@H]3CCC4=CC(=O)CC[C@]4(C)[C@H]3C(=O)C[C@@]21C [Cortisone 21-acetate] | 59780 |  |  | Z-score [3]: 0.3288
C[C@]12CCC(=O)C=C1CC[C@@H]1[C@@H]2C(=O)C[C@@]2(C)[C@H]1CC[C@]2(O)C(=O)CO [Cortisone] |  |  |  | Raw Signal [4]: 65066; Z-score [5]: 1.26
CN(C)CCC=C1c2ccccc2C=Cc2ccccc21 [Cyclobenzaprine hydrochloride] |  |  |  | Raw Signal [4]: 63136; Z-score [5]: 0.9199
O=P1(N(CCCl)CCCl)NCCCO1 (centres unmarked) [Cyclophosphamide monohydrate] |  |  |  | Raw Signal: 58935; Z-score: 0.18
NS(=O)(=O)c1cc2c(cc1Cl)NC(C1CC3C=CC1C3)NS2(=O)=O (centres unmarked) [Cyclothiazide] |  |  |  | Raw Signal [4]: 61194; Z-score [5]: 1.224
CN1CCC(=C2c3ccccc3C=Cc3ccccc32)CC1 [Cyproheptadine hydrochloride] |  |  |  | Raw Signal [4]: 61620; Z-score [5]: 0.6529
CC(=O)O[C@]1(C(C)=O)CC[C@H]2[C@@H]3C=C(Cl)C4=CC(=O)[C@@H]5C[C@@H]5[C@]4(C)[C@H]3CC[C@@]21C [Cyproterone acetate] |  |  |  | Raw Signal [4]: 63165; Z-score [5]: 0.925
NCCSSCCN [Cystamine dihydrochloride] | 58178 |  |  | Z-score [3]: 0.04666
Cl.NCCS [Cysteamine hydrochloride] |  | 49886 | -0.7574 | 
N[C@H](CCCCCP(=O)(O)O)C(=O)O [D(-)-2-Amino-7-phosphonoheptanoic acid] |  |  |  | Raw Signal [4]: 62778; Z-score [5]: 0.8568
S=C([S-])OC1CC2CC1C1CCCC21.[K+] [D-609 potassium] | 55448 |  |  | Z-score [2]: -0.1119
N[C@@H]1CON=C1O [D-Cycloserine] | 55913 |  |  | Z-score [2]: -0.3523
N[C@H](CO)C(=O)O [D-Serine] | 53973 |  |  | Z-score [2]: -0.3984
OCC1OC(n2cnc3ccccc32)C(O)C1O [D-ribofuranosylbenzimidazole] |  | 49673 | -1.116 | 
Clc1ccc(N2C[C@H]3CC[C@@H](C2)N3)nn1 [DBO-83] | 54063 |  |  | Z-score [2]: -0.2242
CCn1c(=O)[nH]c2cc(Cl)c(Cl)cc21 [DCEBIO] |  | 52025 | -0.6381 | 
CCC(=O)N1CCN(C(=O)c2ccccc2)CC1 [DM 235] | 55630 |  |  | Z-score [3]: 0.09402
O=[N+]([O-])c1cc2nc(O)c(O)nc2cc1[N+](=O)[O-] [DNQX] |  | 50774 | -0.8922 | 
COc1cc(OC)cc(C(CNc2ncnc3c2ncn3[C@@H]2O[C@H](CO)[C@@H](O)[C@H]2O)c2ccccc2C)c1 (some centres unmarked) [DPMA] | 54367 |  |  | Z-score [2]: -0.1625

Compound | Raw Signal [1] | Raw Signal [6] | Z-score [7] | further results
CCN(CCCl)Cc1ccccc1Br.Cl [DSP-4 hydrochloride] | 57186 |  |  | Z-score [2]: -0.1281
O=c1c(-c2ccc(O)cc2)coc2cc(O)ccc12 [Daidzein] |  |  |  | Raw Signal [4]: 57311; Z-score [5]: 0.4354
C#C[C@]1(O)CC[C@H]2[C@@H]3CCC4=Cc5oncc5C[C@]4(C)[C@H]3CC[C@@]21C [Danazol] | 54357 |  |  | Z-score [2]: -0.1645
O=C1CN(/N=C/c2ccc(-c3ccc([N+](=O)[O-])cc3)o2)C(O)=N1 [Dantrolene sodium] |  | 49715 | -1.107 | 
O=c1ccc2ccc(O)c(O)c2o1 [Daphnetin] | 55045 |  |  | Z-score [3]: -0.02478
N=C(N)N1CCc2ccccc2C1 [Debrisoquin sulfate] |  | 61933 |  | Z-score [8]: 1.3741
C[N+](C)(C)CCCCCCCCCC[N+](C)(C)C.[Br-].[Br-] [Decamethonium dibromide] |  | 52379 | -0.5662 | 
C[C@]12CC[C@H](OS(=O)(=O)[O-])CC1=CC[C@@H]1[C@@H]2CC[C@]2(C)C(=O)CC[C@@H]12.[Na+] [Dehydroisoandrosterone 3-sulfate sodium] | 55598 |  |  | Z-score [3]: 0.08752
CN(C)[C@@H]1C(O)=C(C(N)=O)C(=O)[C@@]2(O)C(O)=C3C(=O)c4c(O)ccc(Cl)c4[C@@H](O)[C@H]3C[C@@H]12 [Demeclocycline hydrochloride] |  | 42734 | -2.525 | 
CN(N=O)c1cc(O)ccc1O [Dephostatin] | 55962 |  |  | Z-score [3]: 0.1615
Cc1cc(N)c2ccccc2[n+]1CCCCCCCCCCCCCC[n+]1c(C)cc(N)c2ccccc21 [Dequalinium analog, C-14 linker] |  | 52424 | -0.5571 | 
Cc1cc(N)c2ccccc2[n+]1CCCCCCCCCC[n+]1c(C)cc(N)c2ccccc21 [Dequalinium dichloride] | 55705 |  |  | Z-score [3]: 0.1093
CNCCCN1c2ccccc2CCc2ccccc21 [Desipramine hydrochloride] |  | 49945 | -1.061 | 
CN1CC[C@@]23CCCC[C@@H]2[C@@H]1Cc1ccc(O)cc13.O=C(O)C(O)C(O)C(=O)O [Dextrorphan D-tartrate] |  | 63036 |  | Z-score [8]: 1.598
O=c1c2ccccc2[nH]c(=S)n1CCN1CCC(=C(c2ccc(F)cc2)c2ccc(F)cc2)CC1 [Diacylglycerol Kinase Inhibitor II] | 55319 |  |  | Z-score [3]: 0.03086
Cc1nc2sccn2c(=O)c1CCN1CCC(=C(c2ccccc2)c2ccc(F)cc2)CC1 [Diacylglycerol kinase inhibitor I] |  |  |  | Raw Signal [4]: 59347; Z-score [5]: 0.8489
CC1=NS(=O)(=O)c2cc(Cl)ccc2N1 [Diazoxide] |  |  |  | Raw Signal [4]: 58351; Z-score [5]: 0.6466
O=C(O)Cc1ccccc1Nc1c(Cl)cccc1Cl [Diclofenac sodium] | 53274 |  |  | Z-score [2]: -0.3845
O=C(O)CN(CCN(CC(=O)O)CC(=O)O)CCN(CC(=O)O)CC(=O)O [Diethylenetriaminepentaacetic acid] | 53021 |  |  | Z-score [2]: -0.4358
Br.CO[C@H]1CC=C2CCN3CCC4=C(CC(=O)OC4)[C@]23C1 [Dihydro-beta-erythroidine hydrobromide] |  | 51044 | -0.8373 | 

Compound | Raw Signal [1] | Raw Signal [6] | Z-score [7] | further results
COc1cc(CNC(=O)CCCCCCC(C)C)ccc1O [Dihydrocapsaicin] | 52937 |  |  | Z-score [2]: -0.2447
CC(C)[C@@]1(NC(=O)[C@@H]2C[C@@H]3c4cccc5[nH]cc(c45)C[C@H]3N(C)C2)O[C@@]2(O)[C@@H]3CCCN3C(=O)[C@H](Cc3ccccc3)N2C1=O.CS(=O)(=O)O [Dihydroergocristine methanesulfonate] |  | 65195 |  | Z-score [8]: 2.037
CN1C[C@H](C(=O)N[C@]2(C)O[C@@]3(O)[C@@H]4CCCN4C(=O)[C@H](Cc4ccccc4)N3C2=O)C[C@@H]2c3cccc4[nH]cc(c34)C[C@H]21 [Dihydroergotamine methanesulfonate] |  | 48691 | -1.315 | 
CC(C)[C@H]1CN[C@H](C(=O)O)[C@H]1CC(=O)O [Dihydrokainic acid] | 53229 |  |  | Z-score [2]: -0.3936
C[C@@H]1O[C@@H](O[C@H]2C[C@@H](O)[C@]3(CO)[C@H]4[C@H](O)C[C@]5(C)[C@@H]([C@@H]6COC(=O)C6)CC[C@]5(O)[C@@H]4CC[C@]3(O)C2)[C@H](O)[C@H](O)[C@H]1O [Dihydroouabain] |  | 48437 | -1.3668 | 
COc1cc(C(=O)OCCCN2CCCN(CCCOC(=O)c3cc(OC)c(OC)c(OC)c3)CC2)cc(OC)c1OC [Dilazep hydrochloride] | 56027 |  |  | Z-score [3]: 0.1747
COc1ccc([C@@H]2Sc3ccccc3N(CCN(C)C)C(=O)[C@@H]2OC(C)=O)cc1 [Diltiazem hydrochloride] |  | 65486 |  | Z-score [8]: 2.096
CN(C)CCOC(c1ccccc1)c1ccccc1 [Diphenhydramine hydrochloride] | 54459 |  |  | Z-score [2]: -0.1438
c1ccc2c(c1)[I+]c1ccccc1-2 [Diphenyleneiodonium chloride] |  |  |  | Raw Signal [4]: 59663; Z-score [5]: 0.9131
CCCN(CCC)CCc1ccc(O)c(O)c1 [Dipropyldopamine hydrobromide] |  | 52448 | -0.5522 | 
OCCN(CCO)c1nc(N2CCCCC2)c2nc(N(CCO)CCO)nc(N3CCCCC3)c2n1 [Dipyridamole] |  | 52429 | -0.5561 | 
CC(C)N(CCC(C(N)=O)(c1ccccc1)c1ccccn1)C(C)C (centres unmarked) [Disopyramide phosphate] | 54365 |  |  | Z-score [2]: -0.1629
CC(C)N(CCC(C(N)=O)(c1ccccc1)c1ccccn1)C(C)C (centres unmarked) [Disopyramide] |  | 43822 | -2.304 | 
CC(CCc1ccc(O)cc1)NCCc1ccc(O)c(O)c1 (centres unmarked) [Dobutamine hydrochloride] |  | 52494 | -0.5429 | 
O=c1[nH]c2ccccc2n1CCCN1CCC(n2c(=O)[nH]c3cc(Cl)ccc32)CC1 [Domperidone] |  | 51707 | -0.7027 | 
NCCc1ccc(O)c(O)c1 [Dopamine hydrochloride] |  | 44704 | -2.125 | 
COc1cc2nc(N3CCN(C(=O)C4COc5ccccc5O4)CC3)nc(N)c2cc1OC (centres unmarked) [Doxazosin mesylate] |  |  |  | Raw Signal [4]: 57817; Z-score [5]: 0.5382
CN(C)CCC=C1c2ccccc2COc2ccccc21 [Doxepin hydrochloride] |  |  |  | Raw Signal [4]: 58742; Z-score [5]: 0.726
